Entries after “also recorded” stand apart in the source; their conditions may differ.
Experiments:
Assay type in all cases: cell-based, Chinese Hamster
[1] = tested on: Cell Line 1 (CHO) expressing Antibody 1; experiment: Cell culture performance (cell growth, viability, titer), Cell Line 1 3 L bioreactor fed-batch culture
Experimental: A recombinant Chinese Hamster Ovary (CHO) cell line (Cell Line 1) expressing a humanized monoclonal antibody (Antibody 1) was evaluated in 2 different cultures vessels (shaker flasks and 3 L laboratory-scale bioreactors). The cell line was of CHO DUX-B11 origin based on a DHFR (dihydrofolate reductase) expression system and cultured in a chemically defined basal media, and fed periodically with a chemically-defined feed media (CDFM). The media utilized throughout all of the experiments were chemically-defined, and both animal-component free, and protein-free. Each of the respective media were supplemented as needed with selected bioflavonoids to evaluate for their potential impact on the resulting acidic species profile. In preparation of the cultures, the cell lines were serially expanded through separate seed train inoculums to generate enough cells for inoculation. Process conditions utilized during the cultures were slightly different depending on the culture scale, but similar within each scale to the respective non-bioflavonoid supplemented control conditions. All bioflavonoids utilized were purchased from Sigma-Aldrich (St. Louis, Mo.).
(§1) Viable cell density (VCD) and cell viability values were measured through trypan blue exclusion via Cedex automated cell counters (Roche Applied Science, Indianapolis, Ind.), glucose and lactate values were measured with a ABL-805 (Radiometer Medical, Denmark) blood gas analyzer. Offline pH, dissolved oxygen (DO), and pCO2 measurements were performed as needed with an ABL-805 (Radiometer Medical, Denmark) blood gas analyzer. Osmolality was measured as needed on a Multi-Osmette 2430 osmometer (Precision Systems, Natick, Mass.).
Antibody titers were measured from crude cell culture harvests on a Poros A™ (Life Technologies, Carlsbad, Calif.) affinity column using an HPLC system operating with a low pH, step elution gradient with detection at 280 nm. Absolute concentrations were assigned with respect to reference standard calibration curves.
In the next experiment, lab-scale bioreactors were used to (1) confirm the shaker experiment results and (2) to determine whether higher concentration range of EGCG is suitable for supplementing into cell culture. EGCG was added to the feed of the batch culture at the concentrations of 20 mg/L (mid), 50 mg/L (high) and 125 mg/L (high+) and 250 mg/L (high++) in this reactor experiment.
Cell Line 1 was evaluated in larger-scale feed batch cultures with the feed media supplemented with various bioflavonoids. […] By contrast, cell growth performance was slightly different for the 0.1 g/L EGCG supplemented condition. […] However, the cell viability remained high at 0.1 g/L EGCG. All cultures were successfully harvested on Day 15 post-inoculation. The harvest titers measured from the evaluated cultures were similar.
Cell Line 1 was also evaluated in laboratory-scale fedbatch cultures with the feed media supplemented with various bioflavonoids. […] Cell growth performance was slightly different however with the 0.1 g/L EGCG supplemented condition. […] All cultures were able to be successfully harvested on Day 15 post-inoculation.

[2] = tested on: Cell Line 2 (CHO) expressing Antibody 2; experiment: Cell culture performance, Cell Line 2 lab-scale bioreactor culture; conditions: 0.1 g/L in 100% feed and equivalent in 50% feed
Experimental: (§2) Four different recombinant Chinese Hamster Ovary (CHO) cell lines expressing four different recombinant glycoproteins were evaluated in either shaker flask culture, or 3 L laboratory scale bioreactors. Cell Line 1 was genetically engineered to express Antibody 1, Cell Line 2 was genetically engineered to express Antibody 2, Cell Line 3 was genetically engineered to express dual variable domain immunoglobulin 1 (DVD1) and Cell Line 4 was genetically engineered to express dual variable domain immunoglobulin 2 (DVD2).
as §1, with “pCO2 (Dissolved carbon dioxide)” for “pCO2”
Protein A Affinity Chromatography-Antibody titers were measured from crude cell culture harvests on a Poros ATM (Life Technologies, Carlsbad, Calif.) affinity column using an HPLC system operating with a low pH, step elution gradient with detection at 280 nm. […]

[3] = tested on: Cell Line 3 (CHO) expressing DVD1; experiment: Acidic species variants (WCX-10) of DVD1, Cell Line 3 shake flask culture; conditions: shaker
Experimental: as §2
Charge Heterogeneity via Weak Cation Exchange Chromatography-Samples were analyzed using an HPLC system equipped with a ProPac WCX-10 analytical column (Thermo Scientific, Sunnyvale, Calif.). Approximately 100 μg of sample was loaded in 6% Buffer B (10 mM sodium phosphate, 500 mM NaCl, pH 5.5) and 94% Buffer A (10 mM sodium phosphate, pH 7.5). The column was run at a flow rate of 1.0 mL/min. The protein was eluted from the column by increasing the buffer B composition from 6% to 16% over 20 minutes. The protein peaks were measured using UV absorbance at 280 nm as the peaks eluted from the column. The column was regenerated using 100% buffer B followed be a re-equilibration period using initial condition before the injection of the next sample. Peaks eluting before the main peak were termed ‘acidic peaks’ and peaks eluting after the main peak were called ‘basic peaks’ (FIG. 2).
To assess the impact of EGCG on acidic region variants on recombinant proteins, dual variable domain immunoglobulin 1 (DVD1) was examined. EGCG was added at the concentrations of 0.02 g/L, 0.05 g/L, 0.1 g/L and 0.2 g/L into the feed in a shaker experiment (See Table 2). […] At the concentration of 0.2 g/L, EGCG led to 15% viability decrease and 28% productivity loss compared to control condition. Upon measurement of the acidic species variants, EGCG supplement reduced the total acidic species in a dose-dependent manner. At the concentrations of 0.02 g/L, 0.05 g/L, 0.1 g/L and 0.2 g/L respectively, EGCG reduced the total acidic species content 5%, 10%, 17% and 22% relatively compared to the unsupplemented control (FIG. 13D).

In the case of `O=C(O[C@@H]1Cc2c(O)cc(O)cc2O[C@@H]1c1cc(O)c(O)c(O)c1)c1cc(O)c(O)c(O)c1` [EGCG, epigallocatechin gallate], the “peak viable cell density” value ([1]; 0.05 g/L in CDFM, bioreactor, Day 8) is reported as “approximately 12×10^6 cells/mL”, the “harvest titer vs control” value ([1]; 0.05 g/L in CDFM, bioreactor, Day 15 harvest) is reported as “outperforming the control condition by a nominal amount; also recorded: outperformed the control condition by a nominal amount” and the “cell growth profile vs unsupplemented control” value ([1]; 0.1 g/L in CDFM, bioreactor) is reported as “lower than the unsupplemented control culture”. For the same molecule, the cell viability ([1]; 0.1 g/L in CDFM, bioreactor) was “remained high”, the “impact on cell culture performance” value ([1]; 250 mg/L in feed, bioreactor) was “reduction in early cell culture viability and titer reduction” and the “impact on cell culture performance (cell growth, viability, titer)” value ([1]; 20, 50 and 125 mg/L in 1.5×JCL5 feed media, bioreactor) was “no impact on cell culture performance”. The “concentration (turning point) at which peak viable cell density began to drop lower than unsupplemented control” value ([1]; Cell Line 1) was 125 µg/mL, the “impact on cell culture performance (cell growth, viability, titer)” value [2] was “negligible impact on cell culture performance” and the “relative reduction of total acidic species content vs unsupplemented control” value (“relative reduction” below) ([3]; 0.02 g/L in feed) was 5%. For the same molecule, the “relative reduction” value ([3]; 0.05 g/L in feed) was 10%, the “relative reduction” value ([3]; 0.1 g/L in feed) was 17% and the “relative reduction” value ([3]; 0.2 g/L in feed) was 22%.
